Measurements as given in ChEMBL document CHEMBL1146881, “Improved replicon cellular activity of non-nucleoside allosteric inhibitors of HCV NS5B polymerase: from benzimidazole to indole scaffolds” (Bioorg Med Chem Lett, 2006).
Activity calls are given as the source filed them. No cut-off for these calls is given here.

Experiments:
[1] = target: RNA-directed RNA polymerase (Hepacivirus hominis, UniProt O39930); assay: Inhibition of HCV 1b NS5B delta21 RNA dependent RNA polymerase by SPA; set-up: species or system Hepatitis C virus subtype 1b
[2] = tested on: Hepatitis C virus; assay: Inhibition of HCV RNA replication by replicon assay; type: functional, organism-based, Hepacivirus hominis; details: for Activity: Hepacivirus hominis
[3] = target: Genome polyprotein (Human poliovirus 1 Mahoney, UniProt P03300); assay: Inhibition of poliovirus RNA dependent RNA polymerase; set-up: species or system Enterovirus C
Chain of Genome polyprotein (P03300 1749-2209 limits assumed): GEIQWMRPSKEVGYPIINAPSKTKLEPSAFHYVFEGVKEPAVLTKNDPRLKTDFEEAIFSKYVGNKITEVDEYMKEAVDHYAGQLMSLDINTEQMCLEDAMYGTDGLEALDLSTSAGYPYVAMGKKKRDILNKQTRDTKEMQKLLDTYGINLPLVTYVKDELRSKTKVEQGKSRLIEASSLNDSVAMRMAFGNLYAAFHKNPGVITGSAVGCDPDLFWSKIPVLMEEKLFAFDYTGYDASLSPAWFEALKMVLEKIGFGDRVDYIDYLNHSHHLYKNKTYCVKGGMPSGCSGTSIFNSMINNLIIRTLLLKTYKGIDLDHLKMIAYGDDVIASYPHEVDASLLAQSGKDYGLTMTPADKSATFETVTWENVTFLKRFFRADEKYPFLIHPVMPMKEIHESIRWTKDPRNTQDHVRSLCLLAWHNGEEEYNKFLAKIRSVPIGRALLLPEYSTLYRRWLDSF

Chain of RNA-directed RNA polymerase (O39930 whole entry): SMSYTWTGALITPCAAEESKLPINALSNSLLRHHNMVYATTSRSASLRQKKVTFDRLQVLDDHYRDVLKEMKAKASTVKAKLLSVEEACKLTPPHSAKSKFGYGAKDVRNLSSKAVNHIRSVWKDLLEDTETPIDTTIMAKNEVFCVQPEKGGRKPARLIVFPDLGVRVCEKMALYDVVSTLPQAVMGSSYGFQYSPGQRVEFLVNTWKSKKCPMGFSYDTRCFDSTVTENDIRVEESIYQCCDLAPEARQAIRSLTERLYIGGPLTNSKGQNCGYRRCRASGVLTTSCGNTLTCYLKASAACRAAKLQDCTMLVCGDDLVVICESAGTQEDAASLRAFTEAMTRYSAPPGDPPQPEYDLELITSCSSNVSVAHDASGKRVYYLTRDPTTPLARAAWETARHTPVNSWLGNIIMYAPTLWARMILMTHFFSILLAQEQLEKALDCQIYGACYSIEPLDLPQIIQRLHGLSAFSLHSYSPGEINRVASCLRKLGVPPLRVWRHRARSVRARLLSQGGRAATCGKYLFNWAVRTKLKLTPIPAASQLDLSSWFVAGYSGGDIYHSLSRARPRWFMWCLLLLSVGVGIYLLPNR

SMILES	IC50 [1]	EC50 [2]	Activity [2]	IC50 [3]
Cc1c(-c2ccccc2)n(C2CCCCC2)c2ccc(C(=O)O)cc12	180 nM	> 10 µM	–	–
Cn1c(-c2ccoc2)c(C2CCCC2)c2ccc(C(=O)O)c(Cl)c21	290 nM	37 µM	–	–
Cn1c(-c2ccoc2)c(C2CCCCC2)c2ccc(C(=O)O)nc21	51 nM	–	–	–
O=C(O)c1ccc2c(c1)nc(-c1ccoc1)n2C1CCCC1	2200 nM	–	inactive	–
O=C(O)c1ccc2c(C3CCCC3)c(-c3ccoc3)oc2c1	81 nM	21 µM	–	–
Cc1c(-c2ccoc2)n(C2CCCCC2)c2ccc(C(=O)O)cc12	44 nM	> 10 µM	–	–
Cn1c(-c2ccoc2)c(C2CCCC2)c2ccc(C(=O)O)cc21	21 nM	6.6 µM	–	–
Cn1c(-c2ccccn2)c(C2CCCCC2)c2ccc(C(=O)O)cc21	90 nM	3.9 µM	–	–
Cn1c(-c2ccoc2)c(C2CCCCC2)c2ccc(C(=O)O)cc21	16 nM	4.2 µM	–	125 µM
O=C(O)c1ccc2c(c1)nc(-c1ccccn1)n2C1CCCCC1	2700 nM	–	inactive	–
O=C(O)c1ccc2c(c1)nc(-c1ccoc1)n2C1CCCCC1	1100 nM	–	inactive	–
Cn1c(-c2ccccc2)c(C2CCCCC2)c2ccc(C(=O)O)nc21	80 nM	2.2 µM	–	–
O=C(O)c1ccc2c(c1)nc(-c1ccccc1)n2C1CCCCC1	3100 nM	–	inactive	–
COc1c(C(=O)O)ccc2c(C3CCCC3)c(-c3ccoc3)n(C)c12	340 nM	40 µM	–	–
O=C(O)/C=C/c1cc(-c2ccccn2)n(C2CCCCC2)n1	> 100000 nM	–	–	–
O=C(O)c1ccc2c(c1)S(=O)(=O)C(c1ccoc1)=C2C1CCCC1	> 100000 nM	–	–	–
O=C(O)c1ccc2c(C3CCCC3)c(-c3ccoc3)[nH]c2c1	25 nM	6.6 µM	–	–
COC(=O)c1c(C(=O)O)ccc2c(C3CCCC3)c(-c3ccoc3)n(C)c12	480 nM	22 µM	–	–
O=C(O)/C=C/c1cc(C2CCCCC2)c(-c2ccccn2)[nH]1	> 50000 nM	–	–	–
O=C(O)c1ccc2c(C3CCCCC3)c(-c3ccccn3)[nH]c2c1	230 nM	> 10 µM	–	–
Cn1c(-c2ccoc2)c(C2CCCC2)c2ccc(C(=O)O)c(O)c21	75 nM	19 µM	–	–
Cc1c(-c2ccccn2)n(C2CCCCC2)c2ccc(C(=O)O)cc12	820 nM	> 10 µM	–	–
O=C(O)c1ccc2c(C3CCCCC3)c(-c3ccccc3)[nH]c2c1	50 nM	> 10 µM	–	–
O=C(O)c1ccc2c(C3CCCC3)c(-c3ccoc3)sc2c1	78 nM	22 µM	–	–
Cn1c(-c2ccccc2)c(C2CCCCC2)c2ccc(C(=O)O)cc21	30 nM	6.6 µM	–	–
Cn1c(-c2ccoc2)c(C2CCCC2)c2ccc(C(=O)O)c(C(=O)O)c21	5300 nM	–	–	–
O=C(O)c1ccc2c(C3CCCCC3)c(-c3ccoc3)[nH]c2c1	30 nM	6.7 µM	–	> 125 µM
